Assays:
[1] = tested on: Ercc1^−/− MEFs; test: Reversal of senescence (SA-β-gal+) of Ercc1−/− MEFs; assay type: cell-based, mouse; settings: within 24 hours of treatment
Experimental: FIG. 19 depicts analysis of the ability of an IKK inhibitor (IKKiVII) to rescue senescence (SA-β-gal+) […] MEFs after 24 hours of treatment.
To determine whether NF-κB is activated by endogenous genotoxic stress, which arises as a consequence of normal metabolism, Ercc1^−/− primary cells and mice were used, which are defective in DNA repair were used. Phosphorylated p65 (p-p65) and IκB were measured in nuclear and cytoplasmic extracts from early passage, congenic Ercc1^−/− and WT primary MEFs by immunoblot, and there was a >2-fold increase in nuclear p-p65 in Ercc1^−/− MEFs compared to WT, which correlated with an increase in the level of phosphorylated IκB (p-IκB) in the cytoplasm. EMSA was used to confirm increased NF-κB binding in nuclear extracts of Ercc1^−/− MEFs, which was abrogated by pretreatment of the samples with an anti-p65 antibody. To determine whether premature senescence of Ercc1^−/− MEFs is NF-κB dependent, the growth of Ercc1^−/−; p65^−/− MEFs was compared to congenic Ercc1−/− MEFs. Ercc1^−/− MEFs have reduced proliferation and increased replicative senescence as measured by SA-β-Gal staining, γ-H2AX foci and p16 expression. […] Furthermore, the Ercc1^−/−; p65^−/− MEFs had reduced ROS compared to Ercc1 cells as determined by staining mitochondria with DiOC6 and superoxide anion with MitoSOX. […]

[2] = tested on: aged WT MDSPCs; test: Myogenic potential (fusion index) of aged MDSPCs under IKK-β inhibition; assay type: cell-based, mouse; set-up: dose or concentration left out as unconfirmed; settings: fusion conditions
Excerpt: Reduction of NF-κB enhances the myogenic differentiation potential and resistance to stress in MDSPCs isolated from naturally aged mice. To determine further whether the NF-κB signaling pathway plays a role in driving age-related stem cell dysfunction, whether pharmacologic inhibition of IKK-β would restore the myogenic potential of aged WT MDSPCs was examined. […] MDSPCs were isolated from 30 month old p65^+/− and 24 month old WT mice and compared the myogenic potential of 30 month old p65^+/− MDSPCs in vitro to naturally aged WT MDSPCs. The results confirmed that MDSPCs from p65^+/− aged mice (30 month) were more myogenic than MDSPCs from 24 month old WT mice.

[3] = tested on: Ercc1^−/Δ mice; test: Chronic XJB-5-131 treatment of Ercc1−/Δ mice; assay type: in vivo, mouse

O=C(c1ccc(Nc2nccc(-c3cc4ccccc4s3)n2)cc1)N1CCC(N2CCCC2)CC1 [IKKiVII]
senescence of Ercc1^−/− MEFs (>60% of cells SA-βgal+) [1]: could be reversed

NC(=O)Nc1sc(-c2ccc(F)cc2)cc1C(N)=O [IKKβ inhibitor IV]
fusion index of aged MDSPCs [2]: significantly increased

CC(C)C[C@@H](/C=C/[C@H](Cc1ccccc1)C(=O)N1CCC[C@H]1C(=O)N[C@H](C(=O)N[C@@H](CCCNC(=O)OCc1ccccc1)C(=O)NC1CC(C)(C)N([O])C(C)(C)C1)C(C)C)NC(=O)OC(C)(C)C [XJB-5-131]
onset of aging-related degenerative changes [3]: delay the onset

— patent US20140010801A1, “Compositions and Methods for Restoring or Rejuvenating Stem/Progenitor Cell Function” (UNIVERSITY OF PITTSBURGH - OF THE COMMONWEALTH SYSTEM OF …, priority 2012, published 2014)
